From article PMC11593002 (Current Issues in Molecular Biology, 2024)
Several values for one entry are separate records, joined by “and”; a condition that tells them apart may be missing. Identical values can stand only once. Entries after “also recorded” stand apart in the source; their conditions may differ.

Tests used:
[1] = tested on: MDA-MB-231; assay: MTT-dye reduction antiproliferative assay, MDA-MB-231; assay type: cell-based
Excerpt: (§1) Breast cell lines (MCF-10A, MCF-7, and MDA-MB-231) were purchased from the American Type Culture Collection—ATCC (Manassas, VA, USA). MCF-7 and MDA-MB-231 were cultivated in Dulbecco’s modified Eagle’s medium (DMEM), supplemented with 10% fetal bovine serum (FBS), 1% sodium pyruvate, and 1% MEM non-essential amino acids (NEAA) without antibiotics. The non-tumorigenic cell line (MCF-10A) was cultivated in DMEM medium (Sigma-Aldrich, St. Louis, MO, USA) and supplemented with 10% FBS, 1% sodium pyruvate, 1% non-essential amino acids (NEAA), 20 ng/mL human epidermal growth factor (hEGF), 10 μg/mL insulin, and 0.5 μg/mL hydrocortisone without antibiotics. All cell lines were maintained in a humidified atmosphere with 5% CO2 at 37 °C.
(§2) The antiproliferative activity was tested via using the standard MTT-dye reduction assay described by Mosmann. The method is based on the metabolism of the tetrazolium salt MTT to insoluble formazan. The formazan absorption was registered using a microplate reader at λ = 540 nm. The measured absorption is an indicator of cell viability and metabolic activity.

[2] = tested on: MCF-10A; assay: MTT-dye reduction antiproliferative assay, MCF-10A; assay type: cell-based; conditions: for IC50: Homo sapiens
Excerpt: as §1, §2

[3] = tested on: MCF-7; assay: MTT-dye reduction antiproliferative assay, MCF-7; assay type: cell-based; conditions: for increase in IC50: drug + Iscador Qu, concentration not given
Excerpt: as §1, §2

[4] = tested on: MDA-MB-231; assay: Cell cycle analysis by propidium iodide staining (FACS), MDA-MB-231; assay type: cell-based; conditions: for effect on cell cycle of combination vs anticancer drug alone: drug + Iscador Qu (selected combinations); for effect on cell cycle: treatment alone
Method: (§3) After trypsinization, the cells (MCF7, MDA-MB-231, and MCF10A) were resuspended in medium + 10% FCS and centrifuged (1000 rpm, 5 min); then, the pellet was suspended in PBS (1 mL) and fixed with EtOH. After suspension in 2.5 mL pre-cold 70% EtOH, the cells were incubated on ice for 15 min. The staining procedure was as follows: The pellet was suspended in a 500 μL PI solution in PBS (final concentration of PI 1 μg/mL) and 0.1 mg/mL RNAse A, and 0.05% Triton X-100 was added. Following the incubation for 10 min at 37 °C, the cells were transferred to the flow cytometer, and cell fluorescence was measured. The samples were measured by flow cytometry (LSR II, BD Biosciences, Franklin Lakes, NJ, USA) and analyzed using BD FACS DIVA software v. 6.1.3 (BD Biosciences). The control samples of all cell lines underwent the same treatment but without the adding any anticancer drugs or Iscador Qu.
(§4) In the search of the mechanism of action, the cell cycle arrest induced after treatment with the selected combinations was analyzed. The cell aliquots were collected, and FACS analyses were used to detect the effects of the treatments. A propidium iodide staining assay was performed (Figures S1 and S2).

[5] = tested on: microtubule; parameters: method as in PMID 7670132; conditions: cited from earlier work
[6] = tested on: MCF-7; assay: Cell cycle analysis by propidium iodide staining (FACS), MCF-7; assay type: cell-based; conditions: for effect on cell cycle of combination vs anticancer drug alone: drug + Iscador Qu (selected combinations); for effect on cell cycle: mono treatment
Method: as §3, §4

[7] = MDA-MB-231, drug + Iscador Qu 40 µg/mL vs drug alone
[8] = MDA-MB-231, drug + Iscador Qu 80 µg/mL vs drug alone
[9] = drug + Iscador Qu 10 µg/mL vs drug alone
[10] = drug + Iscador Qu 20 µg/mL vs drug alone
[11] = Iscador Qu both concentrations (50 or 100 µg/mL) or not specified
[12] = drug + Iscador Qu 50 µg/mL vs drug alone
[13] = drug + Iscador Qu 100 µg/mL vs drug alone
[14] = higher Iscador Qu concentration (20 µg/mL)
[15] = Iscador Qu both concentrations (10 and 20 µg/mL) or not specified
[16] = MDA-MB-231, Iscador Qu both concentrations (40 and 80 µg/mL) or not specified

O=c1[nH]cc(F)c(=O)[nH]1 [5-Fluorouracyl, 5-Fluorouracil]
IC50 ([1]; Homo sapiens, MDA-MB-231, drug alone): 2.04 µM
fold decrease in IC50 [1, 7]: 1.2 fold
fold decrease in IC50 [1, 8]: 1.5 fold
reduction in IC50 [1, 8]: about 30%
lesser reduction in IC50 in MDA-MB-231 compared to MCF-7 ([1]; combination with Iscador Qu): 33%
effect of combined treatment with Iscador Qu on IC50 / antiproliferative effect ([2]; Iscador Qu 50 µg/mL): did not change the antiproliferative properties
effect of combined treatment with Iscador Qu on IC50 / antiproliferative effect ([2]; Iscador Qu 100 µg/mL): slightly decreased
IC50 ([3]; Homo sapiens, MCF7, drug alone): 6.79 µM
fold decrease in IC50 [3, 9]: 1.5 fold
fold decrease in IC50 [3, 10]: 2.7 fold
reduction in IC50 [3, 10]: ~65%

N.N.[Cl][Pt][Cl] [Cisplatin, cis-diamminedichloroplatinum (II)]
Relative Change of IC50 (%) [1, 7]: 56.77%
Relative Change of IC50 (%) [1, 8]: 43.80%
increase in IC50 [1, 8]: 44%
fold increase in IC50 (reduced antiproliferative effect) ([1]; MDA-MB-231, drug + Iscador Qu, concentration not given): 1.5 fold and 1.6 fold
effect of combined treatment with Iscador Qu on IC50 / antiproliferative effect [2, 11]: enhanced the antiproliferative effect
Relative Change of IC50 (%) [3, 9]: 8.36%
Relative Change of IC50 (%) [3, 10]: −29.37%
reduction in IC50 [3, 10]: 30%
effect on cell cycle of combination vs anticancer drug alone [4]: did not alter the effect
effect on cell cycle [4]: blocked the cells in the S phase

CC(=O)O[C@@]12CO[C@@H]1C[C@H](O)[C@@]1(C)C(=O)[C@H](O)C3=C(C)[C@@H](OC(=O)[C@H](O)[C@@H](NC(=O)OC(C)(C)C)c4ccccc4)C[C@@](O)([C@@H](OC(=O)c4ccccc4)[C@H]21)C3(C)C [Docetaxel]
potency as an inhibitor of microtubule depolymerization compared to Paclitaxel [5]: 2 fold
fold decrease in IC50 [1, 7]: more than 2 fold
fold decrease in IC50 [1, 8]: 4 fold
reduction in IC50 [1, 8]: 72%
IC50 ([2]; drug + Iscador Qu 50 µg/mL): ~0.0042 µM
IC50 ([2]; drug + Iscador Qu 100 µg/mL): ~0.0042 µM
IC50 ([2]; single treatment with drug): 0.00518 µM
effect of combined treatment with Iscador Qu on IC50 / antiproliferative effect [2, 11]: slightly reduced
fold decrease in IC50 [2, 12]: 1.2 fold
fold decrease in IC50 [2, 13]: 1.2 fold
effect of combined treatment with Iscador Qu on IC50 / antiproliferative effect [3, 14]: very slight IC50 decrease
effect of combined treatment with Iscador Qu on IC50 / antiproliferative effect ([3]; low Iscador Qu concentration (10 µg/mL)): IC50 increase
effect on cell cycle of combination vs anticancer drug alone [4]: did not alter the effect
effect on cell cycle [4]: cell cycle arrest in the G0 phase

COc1cccc2c1C(=O)c1c(O)c3c(c(O)c1C2=O)C[C@@](O)(C(=O)CO)C[C@@H]3O[C@H]1C[C@H](N)[C@H](O)[C@H](C)O1 [Doxorubicin]
reduction in IC50 dose [1, 7]: 21%
fold decrease in IC50 [2, 12]: about 2 fold
fold decrease in IC50 [2, 13]: about 2 fold
fold decrease in IC50 [3, 9]: about 2 fold
reduction in IC50 dose [3, 9]: 50%
fold decrease in IC50 [3, 10]: about 2 fold

COc1cccc2c1C(=O)c1c(O)c3c(c(O)c1C2=O)C[C@@](O)(C(=O)CO)C[C@@H]3O[C@H]1C[C@H](N)[C@@H](O)[C@H](C)O1 [Epirubicin]
fold decrease in IC50 [1, 7]: 2 fold
fold decrease in IC50 [1, 8]: 2 fold
reduction in IC50 [1, 8]: 47%
IC50 ([2]; drug alone): 387 µM
fold decrease in IC50 [2, 13]: 2 fold
effect of combined treatment with Iscador Qu on IC50 / antiproliferative effect [3, 15]: did not exhibit significant sensitivity; also recorded: No effect

CCc1c2c(nc3ccc(OC(=O)N4CCC(N5CCCCC5)CC4)cc13)-c1cc3c(c(=O)n1C2)COC(=O)[C@]3(O)CC [Irinotecan]
effect of combined treatment with Iscador Qu on IC50 / antiproliferative effect [1, 16]: very slight IC50 decrease; also recorded: No significant alteration in IC50
effect of combined treatment with Iscador Qu on IC50 / antiproliferative effect [2, 11]: did not affect IC50
effect of combined treatment with Iscador Qu on IC50 / antiproliferative effect [3, 15]: did not affect IC50; also recorded: No effect

CN(Cc1cnc2nc(N)nc(N)c2n1)c1ccc(C(=O)N[C@@H](CCC(=O)O)C(=O)O)cc1 [Methotrexate]
fold decrease in IC50 [1, 8]: 1.5 fold
reduction in IC50 [1, 8]: about 30%
effect of combined treatment with Iscador Qu on IC50 / antiproliferative effect ([2]; Iscador Qu 50 µg/mL): did not reduce the IC50 dose
effect of combined treatment with Iscador Qu on IC50 / antiproliferative effect ([2]; Iscador Qu 100 µg/mL): slightly increased
effect of combined treatment with Iscador Qu on IC50 / antiproliferative effect [3, 15]: No effect
effect of combined treatment with Iscador Qu on IC50 / antiproliferative effect ([3]; Iscador Qu both concentrations (10 and 20 µg/mL) or not specified, listed as methotrexate): did not exhibit any sensitivity

O=C(c1cc(Cc2n[nH]c(=O)c3ccccc23)ccc1F)N1CCN(C(=O)C2CC2)CC1 [Olaparib]
effect on cell cycle of combination vs anticancer drug alone [6]: no significant difference
effect on cell cycle [6]: arrest in the G2/M phase
effect of combined treatment with Iscador Qu on IC50 / antiproliferative effect ([1]; MDA-MB-231, Iscador Qu 40 µg/mL): negative treatment effect
effect of combined treatment with Iscador Qu on IC50 / antiproliferative effect [1, 16]: increase in IC50 dose
increase in IC50 [1, 8]: 22%
effect of combined treatment with Iscador Qu on IC50 / antiproliferative effect [2, 11]: slight decrease in IC50 dose
effect of combined treatment with Iscador Qu on IC50 / antiproliferative effect [3, 15]: antagonistic effect; also recorded: increase in IC50 dose
increase in IC50 [3]: 37%
effect of combined treatment with Iscador Qu on IC50 / antiproliferative effect [3, 14]: negative treatment effect

O=C1[O][Pt]2([NH][C@@H]3CCCC[C@H]3[NH]2)[O]C1=O [Oxaliplatin]
effect on cell cycle of combination vs anticancer drug alone [6]: no significant difference
effect on cell cycle [6]: arrest in the G2/M phase
effect of combined treatment with Iscador Qu on IC50 / antiproliferative effect [1, 16]: increased the antiproliferative effect
Relative Change of IC50 (%) [1, 7]: −48.45%
fold decrease in IC50 [1, 7]: 1.9 fold
Relative Change of IC50 (%) [1, 8]: −69.56%
fold decrease in IC50 [1, 8]: 3.3 fold
reduction in IC50 [1, 8]: 70%
effect of combined treatment with Iscador Qu on IC50 / antiproliferative effect [2, 11]: increased the antiproliferative effect
effect of combined treatment with Iscador Qu on IC50 / antiproliferative effect [3, 15]: increased the antiproliferative effect
Relative Change of IC50 (%) [3, 9]: −47.30%
fold decrease in IC50 [3, 9]: ~2 fold
Relative Change of IC50 (%) [3, 10]: −80.76%
fold decrease in IC50 [3, 10]: 5.2 fold
reduction in IC50 [3, 10]: 81%

CN(C)C(=O)c1cc2cnc(Nc3ccc(N4CCNCC4)cn3)nc2n1C1CCCC1 [Ribociclib]
effect of combined treatment with Iscador Qu on IC50 / antiproliferative effect [1, 16]: did not significantly affect; also recorded: No significant alteration in IC50
effect of combined treatment with Iscador Qu on IC50 / antiproliferative effect [2, 11]: did not significantly affect
fold decrease in IC50 [3, 9]: 2 fold
fold decrease in IC50 [3, 10]: 3 fold
reduction in IC50 [3, 10]: ~65%

CC/C(=C(\c1ccccc1)c1ccc(OCCN(C)C)cc1)c1ccccc1 [Tamoxifen]
increase in IC50 [3]: 31%
